Laboratory results reported in ChEMBL document CHEMBL3875187, “Structure-activity relationship study of a small cyclic peptide H-c[Lys-Pro-Glu]-Arg-OH: a potent inhibitor of Vascular Endothelial Growth Factor interaction with Neuropilin-1” (Bioorg Med Chem, 2017).
Positions of bridges follow the written chain, without caps; N, C: chain ends. Non-standard residues stand in square brackets, D forms with d. Residues, ends and D or L forms follow the SMILES beside them. Orn = NCCC[C@H](N)C(=O)O

Tests used:
[1] = target: Neuropilin-1 (Rattus norvegicus) (UniProt Q9QWJ9); assay: Inhibition of biotin-labelled VEGF165 binding to rat recombinant NRP-1/Fc chimeric protein at 10 uM incubated for overnight by competitive ELISA method relative to control
[2] = target: Neuropilin-1 (Rattus norvegicus) (UniProt Q9QWJ9); assay: Inhibition of biotin-labelled VEGF165 binding to rat recombinant NRP-1/Fc chimeric protein at 3 uM incubated for overnight by competitive ELISA method relative to control
[3] = target: Neuropilin-1 (Rattus norvegicus) (UniProt Q9QWJ9); assay: Inhibition of biotin-labelled VEGF165 binding to rat recombinant NRP-1/Fc chimeric protein at 1 uM incubated for overnight by competitive ELISA method relative to control
[4] = target: Neuropilin-1 (Rattus norvegicus, UniProt Q9QWJ9); assay: Inhibition of biotin labelled VEGF165 binding to rat recombinant NRP-1/Fc chimeric protein incubated for overnight by competitive ELISA method
[5] = Cytotoxicity against HUVEC at 10 to 1000 uM measured after 24 to 96 hrs by MTS assay; assay type: toxicity, cell-based; settings: human
[6] = Cytotoxicity against human MDA-MB-231 cells at 10 to 1000 uM measured after 24 to 96 hrs by MTS assay; assay type: toxicity, cell-based; settings: mda-mb-231, 1000 µM
[7] = target: Neuropilin-1 (Rattus norvegicus) (UniProt Q9QWJ9); assay: Inhibition of biotin labelled VEGF165 binding to rat recombinant NRP-1/Fc chimeric protein at 0.3 uM incubated for overnight by competitive ELISA method relative to control

inhibition [1] [%] | inhibition [2] [%] | inhibition [3] [%] | IC50 ([4]; read-out: IC50) [nM] | inhibition [7] [%] | IC50 ([4]; read-out: pIC50 (converted)) [nM] | SMILES | Activity [5] | Activity [6]
4 | 2.3 | 1.1 | > 10000 |  |  | N=C(N)NCCC[C@H](NC(=O)[C@@H]1CCC(=O)NCCCC[C@@H](N)C(=O)N2CCC[C@H]2C(=O)N1)C(=O)O (H-[dK]PER-OH; lactam 1-3) |  | 
14.7 | 12.5 | 11.8 | > 10000 |  |  | N=C(N)NCCC[C@H](NC(=O)[C@@H]1CC(=O)NCCCC[C@H](N)C(=O)N2CCC[C@H]2C(=O)N1)C(=O)O (H-KPDR-OH; lactam 1-3) |  | 
89 | 85.4 | 79 | 160 | 68.3 |  | N=C(N)NCCC[C@H](NC(=O)[C@@H]1CCCCNC(=O)CC[C@H](N)C(=O)N2CCC[C@H]2C(=O)N1)C(=O)O (H-EPKR-OH; lactam 1-3) | Non-Toxic | Non-Toxic
86.8 | 72.2 | 46.6 | 890 | 30.1 | 1000 | N=C(N)NCCC[C@H](NC(=O)CC[C@@H]1NC(=O)[C@H]2CCCN2C(=O)[C@@H](N)CCCCNC(=O)CC[C@@H](C(=O)N[C@@H](CCCNC(=N)N)C(=O)O)NC(=O)[C@H]2CCCN2C(=O)[C@H](CCCCN)NC1=O)C(=O)O |  | 
46.6 | 35.4 | 27.8 | > 10000 | 14.6 |  | N=C(N)NCCC[C@H](NC(=O)[C@@H]1CCC(=O)NCCC[C@H](N)C(=O)N2CCC[C@H]2C(=O)N1)C(=O)O (H-[Orn]PER-OH; lactam 1-3) |  | 
